This is an account of results in patent US4517181A, “Mammalian PGRF” (The Salk Institute for Biological Studies, priority 1982, dated 1985).

The subject of assay [1] is cells of rat pituitary glands. Description: in vitro GH release, rat pituitary cell monolayer culture bioassay (ir GH by radioimmunoassay). The assay is classed as cell-based. Conditions: for GH secretion in vitro % of controls: Table I. How it is done: To determine the effectiveness of the peptides to promote the release of growth hormone, in vitro assays are carried out using synthetic PGRF (1-40) of Example II in side-by-side comparison with equimolar concentrations of the extracted and purified native PGRF (1-40) and of a GRF Reference Standard having a known effectiveness to promote the release of growth hormone from pituitary cells. The GRF Reference standard is described and defined in Brazeau, et al., Endocrinology, Vol. 110, A538(1982) and is an amount of a preparation of rat hypothalamic origin that produces a half-maximal response in terms of GH release in a pituitary cell monolayer bioassay. Cultures are used which include cells of rat pituitary glands removed some four to five days previously. Both cultures of a defined standard medium and cultures which are considered optimal for the secretion of growth hormone are used for the comparative testing, in the general manner described in Brazeau, et al. Regulatory Peptides, 1, 255, 1981. Incubation with the substance to be tested is carried out for 3 to 4 hours, and aliquots of the culture medium are removed and processed to measure their contents in inmunoreactive GH(ir GH) by a well-characterized radioimmunoassay.
The in vitro assays described in Example VII are repeated using Native PGRF(1-40) and Native PGRF(1-44) and the results are set forth in following Table III: […]

Assay [2] concerns pituitary growth hormone release (serum ir-GH). Description: in vivo release of pituitary growth hormone after one single intravenous injection in normal rats. The arrangement: species or system rat. Conditions: for serum ir-GH: rat. The text has this:
In addition to the in vitro tests for secretion of growth hormone, in vivo experiments were also run by injecting the synthetic peptide into normal male rats about 200 g. body weight, anesthetized with pentobarbital.

Consider `CC[C@H](C)[C@H](NC(=O)[C@H](C)NC(=O)[C@H](CC(=O)O)NC(=O)[C@H](C)NC(=O)[C@@H](N)Cc1ccc(O)cc1)C(=O)N[C@@H](Cc1ccccc1)C(=O)N[C@H](C(=O)N[C@@H](CC(N)=O)C(=O)N[C@@H](CO)C(=O)N[C@@H](Cc1ccc(O)cc1)C(=O)N[C@@H](CCCNC(=N)N)C(=O)N[C@@H](CCCCN)C(=O)N[C@H](C(=O)N[C@@H](CC(C)C)C(=O)NCC(=O)N[C@@H](CCC(N)=O)C(=O)N[C@@H](CC(C)C)C(=O)N[C@@H](CO)C(=O)N[C@@H](C)C(=O)N[C@@H](CCCNC(=N)N)C(=O)N[C@@H](CCCCN)C(=O)N[C@@H](CC(C)C)C(=O)N[C@@H](CC(C)C)C(=O)N[C@@H](CCC(N)=O)C(=O)N[C@@H](CC(=O)O)C(=O)N[C@H](C(=O)N[C@@H](CCSC)C(=O)N[C@@H](CO)C(=O)N[C@@H](CCCNC(=N)N)C(=O)N[C@@H](CCC(N)=O)C(=O)N[C@@H](CCC(N)=O)C(=O)NCC(=O)N[C@@H](CCC(=O)O)C(=O)N[C@@H](CO)C(=O)N[C@@H](CC(N)=O)C(=O)N[C@@H](CCC(N)=O)C(=O)N[C@@H](CCC(=O)O)C(=O)N[C@@H](CCCNC(=N)N)C(=O)NCC(=O)N[C@@H](C)C(=O)O)[C@@H](C)CC)C(C)C)[C@@H](C)O` [Synthetic PGRF (1-40), PGRF (1-40)], for which, in assay [1] (GH release in vitro, Example VII), the ED50 entry is “about 113 picograms”. The figures for the “GH secretion in vitro % of controls” value in assay [1] (10 fmoles), in assay [1] (100 fmoles) and in assay [1] (1000 fmoles) were 269 ± 20 % of controls, 701 ± 6 % of controls and 990 ± 42 % of controls, respectively. Also, in assay [1] (equimolar ratios, Example VII), the “biological activity compared with the native peptide” value is reported as “has the full biological activity of the native peptide”. Moreover, the “serum ir-GH” value in assay [2] (0.01 μg i.v., +5 min) was determined as 284 ± 20 nanograms/ml; in assay [2] (0.01 μg i.v., +10 min), 238 ± 51 nanograms/ml; in assay [2] (0.01 μg i.v., +15 min) it was 201 ± 47 nanograms/ml; in assay [2] (0.01 μg i.v., +30 min), 261 ± 50 nanograms/ml; in assay [2] (0.01 μg i.v., +60 min), 299 ± 25 nanograms/ml; in assay [2] (0.01 μg i.v., -1 min (before injection)), 173 ± 23 nanograms/ml. The “serum ir-GH” value in assay [2] (0.1 μg i.v., +5 min) was 694 ± 246 nanograms/ml; in assay [2] (0.1 μg i.v., +10 min) it was 582 ± 290 nanograms/ml; in assay [2] (0.1 μg i.v., +15 min), 758 ± 562 nanograms/ml; in assay [2] (0.1 μg i.v., +30 min), 280 ± 70 nanograms/ml; in assay [2] (0.1 μg i.v., +60 min) it was 424 ± 129 nanograms/ml; in assay [2] (0.1 μg i.v., -1 min (before injection)), 276 ± 126 nanograms/ml. The “serum ir-GH” value turned out to be 4551 ± 1825 nanograms/ml in assay [2] (1.0 μg i.v., +5 min); 1748 ± 564 nanograms/ml in assay [2] (1.0 μg i.v., +10 min); 730 ± 158 nanograms/ml in assay [2] (1.0 μg i.v., +15 min); 234 ± 53 nanograms/ml in assay [2] (1.0 μg i.v., +30 min); 267 ± 129 nanograms/ml in assay [2] (1.0 μg i.v., +60 min); 142 ± 24 nanograms/ml in assay [2] (1.0 μg i.v., -1 min (before injection)). Also, the “serum ir-GH” value worked out at 7077 ± 1943 nanograms/ml in assay [2] (10.0 μg i.v., +5 min); 4676 ± 585 nanograms/ml in assay [2] (10.0 μg i.v., +10 min); 2464 ± 378 nanograms/ml in assay [2] (10.0 μg i.v., +15 min); 616 ± 112 nanograms/ml in assay [2] (10.0 μg i.v., +30 min); 223 ± 26 nanograms/ml in assay [2] (10.0 μg i.v., +60 min); 234 ± 76 nanograms/ml in assay [2] (10.0 μg i.v., -1 min (before injection)).
Regarding `CC[C@H](C)[C@H](NC(=O)[C@H](C)NC(=O)[C@H](CC(=O)O)NC(=O)[C@H](C)NC(=O)[C@@H](N)Cc1ccc(O)cc1)C(=O)N[C@@H](Cc1ccccc1)C(=O)N[C@H](C(=O)N[C@@H](CC(N)=O)C(=O)N[C@@H](CO)C(=O)N[C@@H](Cc1ccc(O)cc1)C(=O)N[C@@H](CCCNC(=N)N)C(=O)N[C@@H](CCCCN)C(=O)N[C@H](C(=O)N[C@@H](CC(C)C)C(=O)NCC(=O)N[C@@H](CCC(N)=O)C(=O)N[C@@H](CC(C)C)C(=O)N[C@@H](CO)C(=O)N[C@@H](C)C(=O)N[C@@H](CCCNC(=N)N)C(=O)N[C@@H](CCCCN)C(=O)N[C@@H](CC(C)C)C(=O)N[C@@H](CC(C)C)C(=O)N[C@@H](CCC(N)=O)C(=O)N[C@@H](CC(=O)O)C(=O)N[C@H](C(=O)N[C@@H](CCSC)C(=O)N[C@@H](CO)C(=O)N[C@@H](CCCNC(=N)N)C(=O)N[C@@H](CCC(N)=O)C(=O)N[C@@H](CCC(N)=O)C(=O)NCC(=O)N[C@@H](CCC(=O)O)C(=O)N[C@@H](CO)C(=O)N[C@@H](CC(N)=O)C(=O)N[C@@H](CCC(N)=O)C(=O)N[C@@H](CCC(=O)O)C(=O)N[C@@H](CCCNC(=N)N)C(=O)NCC(=O)N[C@@H](C)C(=O)N[C@@H](CCCNC(=N)N)C(=O)N[C@@H](C)C(=O)N[C@@H](CCCNC(=N)N)C(=O)N[C@@H](CC(C)C)C(N)=O)[C@@H](C)CC)C(C)C)[C@@H](C)O` [synthetic PGRF(1-44)-amide, PGRF(1-44)-amide], the “potency compared with native PGRF(1-44) (further testing)” value in assay [1] was “substantially the same potency as native PGRF(1-44)”. Besides, the “GH-releasing activity when injected in laboratory animals (rats)” value in assay [2] (compared with PGRF(1-40) in Table II) is reported as “shows the same type of GH-releasing activity as PGRF(1-40)”.
Consider `CC[C@H](C)[C@H](NC(=O)[C@H](C)NC(=O)[C@H](CC(=O)O)NC(=O)[C@H](C)NC(=O)[C@@H](N)Cc1ccc(O)cc1)C(=O)N[C@@H](Cc1ccccc1)C(=O)N[C@H](C(=O)N[C@@H](CC(N)=O)C(=O)N[C@@H](CO)C(=O)N[C@@H](Cc1ccc(O)cc1)C(=O)N[C@@H](CCCNC(=N)N)C(=O)N[C@@H](CCCCN)C(=O)N[C@H](C(=O)N[C@@H](CC(C)C)C(=O)NCC(=O)N[C@@H](CCC(N)=O)C(=O)N[C@@H](CC(C)C)C(=O)N[C@@H](CO)C(=O)N[C@@H](C)C(=O)N[C@@H](CCCNC(=N)N)C(=O)N[C@@H](CCCCN)C(=O)N[C@@H](CC(C)C)C(=O)N[C@@H](CC(C)C)C(=O)N[C@@H](CCC(N)=O)C(=O)N[C@@H](CC(=O)O)C(=O)N[C@H](C(=O)N[C@@H](CCSC)C(=O)N[C@@H](CO)C(=O)N[C@@H](CCCNC(=N)N)C(=O)N[C@@H](CCC(N)=O)C(=O)N[C@@H](CCC(N)=O)C(=O)NCC(=O)N[C@@H](CCC(=O)O)C(=O)N[C@@H](CO)C(=O)N[C@@H](CC(N)=O)C(=O)N[C@@H](CCC(N)=O)C(=O)N[C@@H](CCC(=O)O)C(=O)N[C@@H](CCCNC(=N)N)C(=O)NCC(=O)N[C@@H](C)C(=O)N[C@@H](CCCNC(=N)N)C(=O)N[C@@H](C)C(=O)N[C@@H](CCCNC(=N)N)C(=O)N[C@@H](CC(C)C)C(=O)O)[C@@H](C)CC)C(C)C)[C@@H](C)O` [synthetic PGRF(1-44)-free acid, PGRF(1-44) free acid], for which, in assay [1], the “potency compared with native PGRF(1-44) (further testing)” value is recorded as “somewhat less potency than native PGRF(1-44)”.
